The test concerns the target T1, Short transient receptor potential channel 5 (Homo sapiens, UniProt Q9UL62).
T1 sequence (Q9UL62 whole entry): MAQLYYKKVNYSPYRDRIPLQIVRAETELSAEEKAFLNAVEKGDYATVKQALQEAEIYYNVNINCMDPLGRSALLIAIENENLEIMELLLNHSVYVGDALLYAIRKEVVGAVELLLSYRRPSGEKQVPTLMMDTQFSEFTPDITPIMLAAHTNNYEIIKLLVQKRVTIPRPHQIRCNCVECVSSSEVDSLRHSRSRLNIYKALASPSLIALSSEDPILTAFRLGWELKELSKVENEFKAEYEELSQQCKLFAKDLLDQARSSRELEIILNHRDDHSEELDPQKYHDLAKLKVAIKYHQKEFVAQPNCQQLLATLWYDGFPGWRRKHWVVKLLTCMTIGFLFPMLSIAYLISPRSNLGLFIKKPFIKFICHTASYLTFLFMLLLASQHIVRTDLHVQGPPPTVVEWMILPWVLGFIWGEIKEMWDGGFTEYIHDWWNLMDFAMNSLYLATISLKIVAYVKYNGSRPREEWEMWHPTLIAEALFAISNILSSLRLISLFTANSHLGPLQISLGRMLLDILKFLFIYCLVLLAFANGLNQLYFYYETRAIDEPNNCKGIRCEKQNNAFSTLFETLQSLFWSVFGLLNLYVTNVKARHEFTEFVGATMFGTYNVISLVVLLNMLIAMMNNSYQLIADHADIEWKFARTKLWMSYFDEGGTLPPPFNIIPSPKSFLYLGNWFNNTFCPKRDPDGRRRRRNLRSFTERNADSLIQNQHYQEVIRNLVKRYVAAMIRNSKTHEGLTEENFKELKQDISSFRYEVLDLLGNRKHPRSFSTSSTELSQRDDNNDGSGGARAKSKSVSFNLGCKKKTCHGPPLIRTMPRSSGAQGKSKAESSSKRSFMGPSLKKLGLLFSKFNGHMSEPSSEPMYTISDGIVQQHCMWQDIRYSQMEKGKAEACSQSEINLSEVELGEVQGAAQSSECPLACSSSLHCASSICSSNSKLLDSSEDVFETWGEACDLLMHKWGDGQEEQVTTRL
Nature of the test: High Throughput Screening Assay: The commercially available HEK293/TREx line (Invitrogen) was stably transfected with a TRPC5 construct and screened by conventional calcium imaging to find clones with TRPC5 expression following stimulation with 1 μg/ml tetracycline. These cells were maintained in the growth medium recommended by the manufacturer supplemented with 100 μg/ml hygromycin to promote retention of the TRPC5 construct. After growing to near confluency, cells were plated at a density of Ë¿35,000 cells/well in 384 well CellBind plates (Corning) in the presence of 1 μg/ml tetracycline, and allowed to grow for 20-30 hrs. A nearly confluent monolayer resulted. Cells were then loaded with Ca2+ dye: Fura-2/AM or Fluo4/AM was added to the wells to a final concentration of 4 μM or 0.5 μM, respectively, and incubated for 80 min or 60 min, respectively, at room temperature. Supernatant was then removed from the cells by inverting plates with a sharp flick, and 25 μl Hank's Balanced Salt Solution (HBSS; 0.185 g/l D-glucose, 0.9767 g/l MgS04 (anhydrous), 0.4 g/l KCl, 0.06 g/l KH2PO4 (anhydrous), 0.35 g/l NaHCO3, 8.0 g/l NaCl, and 0.04788 g/l Na2HPO4 (anhydrous); pH 7.4) was then added to each well. […].

A word on the IC50: it is the concentration at which inhibition is half-maximal.

Consider `Cc1c(-c2cccc(Cl)c2Cl)sc2c1c(=O)n(CCCO)c(=O)n2C`, for which the IC50 was 31.6 nM.

For the compound `Cn1c(=O)n(CCCO)c(=O)c2c(C(O)c3ccc(Cl)cc3)c(Oc3cccc(OC(F)(F)F)c3)sc21` (configuration not stated), the IC50 is 194 nM.

Values taken from ChEMBL document CHEMBL3886925, “Thieno- and furo[2,3-d]pyrimidine-2,4[1H,3H]-dione derivatives” (2016).
